Entries after “also recorded” stand apart in the source; their conditions may differ.
Key:
[1] = test system: inflammation in the lungs; details: in vivo; cited from earlier work
[2] = test system: PC12 cells (conditioned media from 1321N1 human astrocytoma cells); assay: Neurite outgrowth of PC12 cells treated with conditioned media from 1321N1 cells; format: cell-based, rat; details: conditioned media from treated 1321N1 cells; n=3
Description: 1321N1 human brain astrocytoma cells are known to excrete neurologically beneficial compounds when stimulated with neurotrophic compounds and fungal extracts including lion's mane (Mori et al., Biological and Pharmaceutical Bulletin, 9: 1727-1732 (2008)). While some fungi have well established mechanisms by which they benefit neurological health, little is known about the role of psilocybin analogs specifically. Generally following the protocol of Mori et al., 2008, 1321N1 human astrocytoma cells were treated with psilocybin analogs, and conditioned media was collected and applied to differentiated rat pheochromocytoma PC12 cells to determine the resulting impact on neurite outgrowth.

[3] = test system: nerve growth factor (NGF) protein; assay: ELISA of NGF protein in 1321N1 cells; format: cell-based; details: human 1321N1 cells; vs vehicle control; n=3; p<0.05
Description: Accordingly, preliminary research has started to reveal the mechanisms by which psilocybin analogs may confer neurotrophic benefits that facilitate neurite outgrowth.
(§1) See Ly et al., “Psychedelics Promote Structural and Functional Neural Plasticity,” Cell Rep.

[4] = test system: Rat Induced Pluripotent Stem Cell (iPSC) neurons / cortical neurons from rat embryo; assay: Neurite outgrowth and length in cultured neurons, beta III tubulin immunostaining, High-Content Screening (Neurofit); format: cell-based; details: day 10
Description: Experiments were conducted to evaluate the neurotrophic effects of several purified tryptamines, H. erinaceum extracts, and the tryptamines combined with selected extracts of H. erinaceum. The tryptamines, baeocystin, norbaeocystin, and norpsilocin, were evaluated at final concentrations of 0.3 μg/mL, 1 μg/mL, 3 μg/mL, and 10 μg/mL. The experiments analyzed the H. erinaceum growth medium (rice or rice and oat hull fiber), the days of cultivation, the extract solvent (water, ethanol, or ethyl acetate), and the final concentration of the extract (31.3 μg/mL, 62.5 μg/mL, 125 μg/mL or 250 μg/mL). Finally, combinations of the three tryptamines and representative H. erinaceum extracts were combined and evaluated.
Experiments were conducted by Neurofit Contract Research Organization in Illkirch-Graffenstaden, France.
The following protocol was performed for each independent culture. Six culture experiments were performed for each condition.
Results are expressed as mean (±Standard Deviation).

[5] = test system: anti-inflammatory cytokine IL-10; assay: ELISA of IL-10 in 1321N1 cells; format: cell-based; details: human 1321N1 brain cells
Description: as §1

[6] = test system: hallucinogenic effects in humans; details: human, cited from earlier work

Compound	inflammation in the lungs [1]	neurite outgrowth induced by conditioned media [2]	expression of NGF protein [3]	neurite outgrowth compared with vehicle control and other treatments (in words) ([4]; at the concentrations tested)	Neurite length per neuron, % of control, Avg. ([4]; tryptamine 0.3 μg/mL) [%]	Neurites per neuron, % of control, Avg. ([4]; tryptamine 0.3 μg/mL) [%]	Neurite length per neuron, % of control, Avg. ([4]; tryptamine 1 μg/mL) [%]	Neurites per neuron, % of control, Avg. ([4]; tryptamine 1 μg/mL) [%]	Neurite length per neuron, % of control, Avg. ([4]; tryptamine 3 μg/mL) [%]	Neurites per neuron, % of control, Avg. ([4]; tryptamine 3 μg/mL) [%]	Neurite length per neuron, % of control, Avg. ([4]; tryptamine 10 μg/mL) [%]	Neurites per neuron, % of control, Avg. ([4]; tryptamine 10 μg/mL) [%]	expression of IL-10 [5]	hallucinogenic effect ([6]; 4 mg consumed, anecdotal (Gartz 1991))	hallucinogenic effects ([6]; oral consumption of 10 mg and 20 mg)
COc1cc(C[C@@H](C)N)c(OC)cc1I [(R)-2,5-dimethoxy-4-iodoamphetamine]	prevent and reverse inflammation														
NCCc1c[nH]c2cccc(OP(=O)(O)O)c12 [norbaeocystin, 4-phosphoryloxy-tryptamine]		induce neurite outgrowth	increased expression of NGF protein; also recorded: induces the expression; also recorded: induction of NGF protein												
CNCCc1c[nH]c2cccc(O)c12 [norpsilocin, 4-hydroxy-N-methyl-tryptamine]		induce neurite outgrowth		did not perform better than vehicle control	107.70	83.77	101.13	87.18	73.80	79.36	7.65	27.71	induces the expression		
CNCCc1c[nH]c2cccc(OP(=O)(O)O)c12 [baeocystin, 4-phosphoryloxy-N-methyltryptamine]		induce neurite outgrowth			119.24	94.46	112.34	93.66	118.42	97.18	109.61	96.87		gentle hallucinogenic experience	did not produce any hallucinogenic effects
